Measured values taken from patent US10668109B2, “Conditioning protocols and use of same for tissue regeneration” (Yeda Research and Development Co. Ltd., priority 2015, dated 2020).

How the values were obtained:
pulmonary Clara cells = assay: Naphthalene lung injury model, ablation of Clara cells; assay type: in vivo, mouse; conditions: naphthalene alone, C57BL mice
Method: For lung injury studies, mice were given an intraperitoneal injection of naphthalene (NA) (more than 99% pure; Sigma-Aldrich), dissolved in corn oil, 200 mg per kg body weight, 40-48 hours before transplantation of embryonic lung tissue. To that end, these cells were initially evaluated in a model based on injury induction with naphthalene, as previously described [[…] et al, American Journal of Physiology-Lung Cellular and Molecular Physiology. (1995) 269(6):791]. This lung injury model mimics lung diseases caused by mild epithelial injury, detectable by changes in the expression of pulmonary Clara cells. The particular anatomical localization of Clara cells in respiratory bronchioles and in broncho-alveolar junctions enabled to accurately localize the site of injury after naphthalene exposure, and to test the ability of a single cell suspension of embryonic “window” cells to colonize and restore the injured epithelial layer in syngeneic recipients.

[1] = tested on: endogenous lung progenitors; assay: BrdU incorporation assay (lung cell proliferation in vivo); design: species or system mouse
Method: Lung cell proliferation was measured in vivo by BrdU uptake. Briefly, control and four groups of experimental mice (7 days following naphthalene administration and 5 days after TBI) received a single dose of BrdU (Sigma) intraperitoneally 120 minutes before sacrifice (at a dose of 50 mg per kg of body weight). Lungs were excised, left lungs were enzymatically digested (using the same protocol as for embryonic tissue dissociation) for polychromatic FACS analysis, and right lungs were fixed with 4% PFA and processed for further immunofluorescence staining. Multiple serial slices were costained with anti-BrdU-FITC and anti-CCSP or anti-SPC antibodies. All FACS and immunohistochemical studies were done using the BrdU flow kit (BD Biosciences), according to the manufacturer's instructions. For morphometric analysis of CCSP^+BrdU^+ and SPC^+BrdU^+ cells, images were stained with anti-CCSP and anti-BrdU or anti-SPC and anti-BrdU antibodies and nuclei counterstained with Hoechst dye. The images were acquired by an observer blinded to the treatment groups, using an Olympus fluorescent microscope and Olympus digital camera (DP70) with a ×40 objective. At least 20 different stained random fields were counted for each marker.

[2] = tested on: C57BL/6 mice, recipient lungs; assay: Assessment of GFP+ foci in chimeric lungs by morphometry after different conditioning regimens; assay type: in vivo, mouse; conditions: for engraftment / lung chimerism of donor-derived cells: conditioning with NA alone, 1×10^6 E16 lung cells 2 days after NA; for donor-derived foci: E16 lung cells
Method: For lung injury studies, mice were given an intraperitoneal injection of naphthalene (NA) (more than 99% pure; Sigma-Aldrich), dissolved in corn oil, 200 mg per kg body weight, 40-48 hours before transplantation of embryonic lung tissue. For ‘double’ lung injury, naphthalene-treated animals were further irradiated in a cesium irradiator (Gammacell 40), (40-48 hours after naphthalene administration). C57BL/6, tdTomato (Gt(ROSA)26Sortm4(ACTB-tdTomato,-EGFP)Luo/J mice, and Rag1^−/− mice were irradiated with 6 Gy TBI, and NOD-SCID mice were irradiated 3-4 Gy TBI. Following conditioning with NA, TBI, or both, C57BL/6 mice were transplanted with 1×10^6 GFP-positive E15-E16 embryonic lung cells injected into the tail vein 4-8 hours following irradiation. Lungs were fixed with a 4% PFA solution introduced through the trachea under a constant pressure of 20 cm H2O. Then the lungs were immersed in fixative overnight at 4° C. Lungs were processed after PFA treatment and fixed in 30% sucrose and frozen in Optimal Cutting Temperature (OCT) compound (Sakura Finetek USA, Inc. Tissue-Tek). Serial step sections, 12 μm in thickness, were taken along the longitudinal axis of the lobe. The fixed distance between the sections was calculated so as to allow systematic sampling of at least 20 sections across the whole lung. Lung slices were analyzed by fluorescence microscopy. The actual number of GFP^+ foci (a group of more than 5 distinct GFP^+ cells was defined as a single patch) was counted per slice using Image Pro software. The area of each slice was estimated by Image Pro software, and the average area of slices and average frequency of GFP^+ patches in all the slices were assessed (patch(P)/Area(A) (mm2)), assuming that the frequency per area in a large number of slices reflects distribution per volume.

SMILES: c1ccc2ccccc2c1 [naphthalene]
- ablation of Clara cells (pulmonary Clara cells): transient
- endogenous cell recovery ([1]; 6 Gy TBI 48 hrs after NA treatment): inhibited
- level of BrdU+ cells within endothelial, epithelial and mesenchymal lineages (FACS) ([1]; 6 Gy TBI administered 48 hrs after NA): significantly reduced
- ablation of endogenous pool of progenitors ([1]; 6 Gy TBI prior to NA treatment): did not effectively ablate the endogenous pool of progenitors
- endogenous BrdU+ proliferating cells ([1]; NA alone, no transplantation): marked signal of endogenous BrdU^+ proliferating cells
- GFP positive patches (engraftment of donor-derived cells) ([2]; NA and 6 Gy TBI vs TBI alone or NA alone, 30 days post transplant): markedly enhanced
- engraftment / lung chimerism of donor-derived cells [2]: could not enable significant engraftment
- engraftment / lung chimerism of donor-derived cells ([2]; listed as NA): failed to attain a detectable level of lung chimerism
- donor-derived foci ([2]; conditioning with naphthalene alone, 30 days post transplant): 10-12 foci/mm^3
- donor-derived foci ([2]; conditioning with naphthalene and 6 Gy TBI, 30 days post transplant): 55 foci/mm^3
